Laboratory results published in the NIST ThermoML archive (doi:10.1016/j.jct.2010.11.001).

Details: Liquid, Closed cell (Static) method

FCC(F)(F)F [1,1,1,2-tetrafluoroethane]
Details	vapor or sublimation pressure [kPa]
243.14 K	84.1
245.14 K	92.4
247.14 K	101.4
249.15 K	111.1
251.16 K	121.4
253.15 K	132.5
255.14 K	144.3
257.16 K	157.1
259.17 K	170.6
261.16 K	185
263.14 K	200.2
265.13 K	216.4
267.13 K	233.7
269.14 K	252.1
271.14 K	271.6
273.13 K	292.1
275.13 K	313.9
277.16 K	337.2
279.16 K	361.5
281.16 K	387.3
283.17 K	414.3
285.14 K	442.1
287.15 K	472.3
289.14 K	503.4
291.14 K	536.3
293.14 K	570.9

CCC [propane]
Details	vapor or sublimation pressure [kPa]
233.22 K	111.3
235.21 K	121.3
237.18 K	131.7
239.2 K	143.2
241.22 K	155.4
243.21 K	168.2
245.26 K	182.1
247.13 K	195.6
249.14 K	211.1
251.14 K	227.4
253.14 K	244.5
255.14 K	262.5
257.13 K	281.5
259.15 K	301.8
261.12 K	322.7
263.15 K	345.3
265.14 K	368.6
267.14 K	393.2
269.14 K	419
271.14 K	446.1
273.14 K	474.3
275.14 K	503.9
277.14 K	535
279.15 K	567.4
281.15 K	601.4
283.15 K	636.7
285.15 K	673.5
287.14 K	711.8
289.15 K	752
291.16 K	793.7
293.15 K	836.8
